Test results: patent US9549965B2, “Pharmaceutical composition for treating a microbial infection” (HELPERBY THERAPEUTICS LIMITED, priority 2010, dated 2017)
Converted amounts (≈) assume the structure as drawn. Structures can show the parent of a compound that is named as a salt. Where two headings read alike, the source gives them in different places.

Tests used:
[1] = test system: stationary phase S. aureus; assay: Bactericidal activity against stationary phase S. aureus (CFU counts); format: cell-based, Staphylococcus aureus; conditions: for log reduction at 6.25 µg/mL / log reduction at 12.5 µg/mL / log reduction at 25 µg/mL: Staphylococcus aureus, read-out: Log Kill
Procedure: Staphylococcus aureus (Oxford strain); Gram positive; Reference strain.
(§1) Bacteria were grown in 10 ml of nutrient broth (No. 2 (Oxoid)) overnight at 37° C., with continuous shaking at 120 rpm. The overnight cultures were diluted (1000×) in 100 ml of growth medium and then incubated without shaking for 10 days. Viability of the bacteria was estimated by colony forming unit (CFU) counts at 2 hour intervals at the first 24 hours and at 12-24 hours afterwards. From serial 10-fold dilutions of the experimental cultures, 100 μl samples were added to triplicate plates of nutrient agar plates (Oxoid) and blood agar plates (Oxoid). Colony forming units (CFU) were counted after incubation of the plates at 37° C. for 24 hours.
(§2) Cultures incubated for more than 24 hours are in the stationary phase. For drug screening, 5-6 day old stationary phase cultures were used.
(§3) Different concentrations of each test compound were incubated with stationary phase cultures (5-6 day cultures) in 96 well plates for 24 or 48 hours. Bactericidal activity was then determined by taking CFU counts of the resulting cultures, as described above.

[2] = test system: log phase E. coli; assay: MIC against log phase E. coli; format: cell-based, Escherichia coli
Procedure: (§4) Escherichia coli K12; Gram negative; Reference strain.
The above-described overnight cultures were diluted (1000×) with iso-sensitest broth. The cultures were then incubated at 37° C. with shaking for 1-2 hours to reach log CFU 6, which served as log phase cultures.
The bactericidal activity of the drugs against log phase cultures were determined by minimal inhibitory concentration (MIC) of the drugs, which is defined as the lowest concentration which inhibits visible growth. Different concentrations of each test compound were incubated with the log-phase cultures in 96 well plates for 24 hours. Bactericidal activity was then examined by taking a spectrophotometer reading (using a plate reader) at 405 nm.

[3] = test system: persistent E. coli; assay: Bactericidal activity against persistent E. coli selected by gentamicin; format: cell-based, Escherichia coli; conditions: for log reduction at 6.25 µg/mL / log reduction at 12.5 µg/mL / log reduction at 25 µg/mL: Escherichia coli, read-out: Log Kill
Procedure: as §4
An antibiotic (gentamicin) was added to 5-6 day stationary-phase cultures to the final concentration of 50 to 100 μg/ml for 24 hours. After 24 hours of antibiotic treatment, the cells are washed 3 times with phosphate buffered saline (PBS), and then resuspended in PBS. The surviving bacterial cells are used as persisters. Viability is estimated by CFU counts. The persisters were then used in measurements of bactericidal activity for test compounds.
Different concentrations of each test compound were incubated with the (persister) cell suspension in 96 well plates for various periods of time (24 and 48 hours). Bactericidal activity was then determined by taking CFU counts of the resulting cultures, as described above.

[4] = test system: stationary phase E. coli; assay: Bactericidal activity against stationary phase E. coli (CFU counts); format: cell-based, Escherichia coli; conditions: for log reduction at 6.25 µg/mL / log reduction at 12.5 µg/mL / log reduction at 25 µg/mL: Escherichia coli, read-out: Log kill
Procedure: as §4, §1, §2, §3

[5] = test system: NDM-1 Klebsiella pneumoniae; assay: Chequerboard analysis with colistin against NDM-1 Klebsiella pneumoniae; format: cell-based
[6] = test system: stationary phase P. aeruginosa; assay: Bactericidal activity against stationary phase P. aeruginosa; format: cell-based, Pseudomonas aeruginosa; conditions: FIG. 1
Procedure: as §1, with “Pseudomonas aeruginosa NCTC 6751; Gram negative; Reference strain. Bacteria” for “Bacteria”, “hours. Cultures incubated for more than 24 hours are in the stationary phase. For drug screening, 5-6 day old stationary phase cultures were used. Different concentrations of each test compound were incubated with stationary phase cultures (5-6 day cultures) in 96 well plates for 24 or 48 hours. Bactericidal activity was then determined by taking CFU counts of the resulting cultures, as described above.” for “hours.”

[7] = Escherichia coli, read-out: MIC

Molecule	MIC [2]	Log Kill ([3]; 6.25 μg/ml)	Log Kill ([3]; 12.5 μg/ml)	Log Kill ([3]; 25 μg/ml)	Log Kill ([4]; 6.25 μg/ml)	Log Kill ([4]; 12.50 μg/ml)	Log Kill ([4]; 25.00 μg/ml)	log reduction at 6.25 µg/mL ([1]; 6.25 μg/ml)	log reduction at 12.5 µg/mL ([1]; 12.5 μg/ml)	log reduction at 25 µg/mL ([1]; 25 μg/ml)	MIC [2, 7] [µg/mL]	log reduction at 6.25 µg/mL ([3]; 6.25 μg/ml)	log reduction at 12.5 µg/mL ([3]; 12.5 μg/ml)	log reduction at 25 µg/mL ([3]; 25 μg/ml)	log reduction at 6.25 µg/mL ([4]; 6.25 μg/ml)	log reduction at 12.5 µg/mL ([4]; 12.50 μg/ml)	log reduction at 25 µg/mL ([4]; 25.00 μg/ml)	other results
N.N.O=C([O-])C1(C(=O)[O-])CCC1.[Pt+2] [Carboplatin]	— (— signifies MIC higher than 50 μg/ml)	1.55	2.55	6.21	6.14	6.14	6.14	–	–	–	–	–	–	–	–	–	–	Log Kill ([1]; 6.25 μg/ml): 0.92; Log Kill ([1]; 12.5 μg/ml): 6.03; Log Kill ([1]; 25 μg/ml): 6.03
CN(C)CC/C=C1/c2ccccc2Sc2ccc(Cl)cc21 [Chlorprothixene hydrochloride]	–	–	–	–	–	–	–	1.83	6.15	6.15	20	0.02	0.03	6.21	–	–	–	spectrophotometer reading ([5]; chlorprothixene hydrochloride 0.25 mg/L alone): 1.14; spectrophotometer reading ([5]; chlorprothixene hydrochloride 0.5 mg/L alone): 1.15; spectrophotometer reading ([5]; chlorprothixene hydrochloride 1 mg/L alone): 1.13; spectrophotometer reading ([5]; chlorprothixene hydrochloride 2 mg/L alone): 1.12; spectrophotometer reading ([5]; chlorprothixene hydrochloride 4 mg/L alone): 1.12; spectrophotometer reading ([5]; chlorprothixene hydrochloride 8 mg/L alone): 1.13; spectrophotometer reading ([5]; chlorprothixene hydrochloride 16 mg/L alone): 1.10; spectrophotometer reading ([5]; chlorprothixene hydrochloride 32 mg/L alone): 1.05; spectrophotometer reading ([5]; chlorprothixene hydrochloride 64 mg/L alone): 0.70; spectrophotometer reading ([5]; chlorprothixene hydrochloride 128 mg/L alone): 0.62; spectrophotometer reading ([5]; chlorprothixene hydrochloride 256 mg/L alone): 0.40
N.N.[Cl][Pt][Cl] [Cisplatin]	— (— signifies MIC higher than 50 μg/ml)	6.21	6.21	6.21	6.14	6.14	6.14	–	–	–	–	–	–	–	–	–	–	Log Kill ([1]; 6.25 μg/ml): 6.03; Log Kill ([1]; 12.5 μg/ml): 6.03; Log Kill ([1]; 25 μg/ml): 6.03
CO[C@@]12[C@H](COC(N)=O)C3=C(C(=O)C(C)=C(N)C3=O)N1C[C@@H]1N[C@@H]12 [Mitomycin C]	0.3 µg/mL (≈ 0.897 µM)	6.21	6.21	6.21	2.27	6.14	6.14	–	–	–	–	–	–	–	–	–	–	Log Kill ([1]; 6.25 μg/ml): 6.15; Log Kill ([1]; 12.5 μg/ml): 6.15; Log Kill ([1]; 25 μg/ml): 6.15
Cl.Cl.O=C1c2c(O)ccc(O)c2C(=O)c2c(NCCNCCO)ccc(NCCNCCO)c21 [Mitoxanthrone hydrochloride]	— (— signifies MIC higher than 50 μg/ml)	6.21	6.21	6.21	6.14	6.14	6.14	–	–	–	–	–	–	–	–	–	–	–
N=C1C=CC(=C(c2ccc(N)cc2)c2ccc(N)cc2)C=C1 [Pararosaniline pamoate]	–	–	–	–	–	–	–	6.15	6.15	6.15	10	-0.01	0.01	6.21	1.9	6.14	6.14	–
C[n+]1cc2c3c(ccc2c2ccc4cc5c(cc4c21)OCO5)OCO3 [Sanguinarine sulfate]	–	–	–	–	–	–	–	6.15	6.15	6.15	> 50	0.04	1.47	6.21	-0.1	2.4	6.14	–
CCCCCCCCNC(C)C(O)c1ccc(SC(C)C)cc1 (centres unmarked) [Suloctidil]	–	–	–	–	–	–	–	6.03	6.03	6.03	10 (≈ 29.6 µM)	0.02	0.02	6.21	–	–	–	spectrophotometer reading ([5]; suloctidil 0.25 mg/L alone): 0.97; spectrophotometer reading ([5]; suloctidil 0.5 mg/L alone): 1.03; spectrophotometer reading ([5]; suloctidil 1 mg/L alone): 0.98; spectrophotometer reading ([5]; suloctidil 2 mg/L alone): 0.93; spectrophotometer reading ([5]; suloctidil 4 mg/L alone): 0.94; spectrophotometer reading ([5]; suloctidil 8 mg/L alone): 0.70; spectrophotometer reading ([5]; suloctidil 16 mg/L alone): 0.60; spectrophotometer reading ([5]; suloctidil 32 mg/L alone): 0.60; spectrophotometer reading ([5]; suloctidil 64 mg/L alone): 0.38; spectrophotometer reading ([5]; suloctidil 128 mg/L alone): 0.44; spectrophotometer reading ([5]; suloctidil 256 mg/L alone): 0.61; activity against stationary phase P. aeruginosa [6]: no observable activity
CSc1ccc2c(c1)N(CCC1CCCCN1C)c1ccccc1S2 (centres unmarked) [Thioridazine hydrochloride]	–	–	–	–	–	–	–	6.03	6.03	6.03	10	0.04	0.03	6.21	6.14	6.14	6.14	spectrophotometer reading ([5]; thioridazine hydrochloride 0.25 mg/L alone): 0.98; spectrophotometer reading ([5]; thioridazine hydrochloride 0.5 mg/L alone): 0.97; spectrophotometer reading ([5]; thioridazine hydrochloride 1 mg/L alone): 0.97; spectrophotometer reading ([5]; thioridazine hydrochloride 2 mg/L alone): 0.96; spectrophotometer reading ([5]; thioridazine hydrochloride 4 mg/L alone): 0.96; spectrophotometer reading ([5]; thioridazine hydrochloride 8 mg/L alone): 0.96; spectrophotometer reading ([5]; thioridazine hydrochloride 16 mg/L alone): 0.96; spectrophotometer reading ([5]; thioridazine hydrochloride 32 mg/L alone): 0.93; spectrophotometer reading ([5]; thioridazine hydrochloride 64 mg/L alone): 0.73; spectrophotometer reading ([5]; thioridazine hydrochloride 128 mg/L alone): 0.76; spectrophotometer reading ([5]; thioridazine hydrochloride 256 mg/L alone): 1.41
CN(C)CCCN1c2ccccc2Sc2ccc(C(F)(F)F)cc21 [Triflupromazine hydrochloride]	–	–	–	–	–	–	–	6.15	6.15	6.15	10	0.03	2.34	6.21	2.1	6.14	6.14	spectrophotometer reading ([5]; triflupromazine 0.25 mg/L alone): 1.11; spectrophotometer reading ([5]; triflupromazine 0.5 mg/L alone): 1.13; spectrophotometer reading ([5]; triflupromazine 1 mg/L alone): 1.14; spectrophotometer reading ([5]; triflupromazine 2 mg/L alone): 1.13; spectrophotometer reading ([5]; triflupromazine 4 mg/L alone): 1.14; spectrophotometer reading ([5]; triflupromazine 8 mg/L alone): 1.17; spectrophotometer reading ([5]; triflupromazine 16 mg/L alone): 1.11; spectrophotometer reading ([5]; triflupromazine 32 mg/L alone): 1.08; spectrophotometer reading ([5]; triflupromazine 64 mg/L alone): 0.73; spectrophotometer reading ([5]; triflupromazine 128 mg/L alone): 0.76; spectrophotometer reading ([5]; triflupromazine 256 mg/L alone): 0.41
Bleomycin	0.15 µg/mL	1.55	6.21	6.21	2.22	6.14	6.14	–	–	–	–	–	–	–	–	–	–	–
